Like-named read-outs stand apart in the source and are kept apart here.
Experiments:
[1] = target: CYP3A4 (CYP3A) (Homo sapiens, UniProt P08684); test: in vitro; settings: microsomes, pH 7.4;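 also: inhibition of CYP3A-mediated 1-hydroxymidazolam formation after 10 min incubation with NADPH, quantified by HPLC MS relative to metabolite produced without test compound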
[2] = target: Beta Secretase enzyme (BACE) (Homo sapiens, UniProt P56817); test: In vitro enzymatic BACE FRET (fluorescence resonance energy transfer) assay; assay type: biochemical;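 also: fluorescence read after 1 h with 50 nM quenched peptide substrate spanning the BACE cleavage site, in pH 4.2 acetate buffer containing 10% DMSO and nonionic detergent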
Chain of Beta Secretase enzyme (BACE) (P56817 46-501): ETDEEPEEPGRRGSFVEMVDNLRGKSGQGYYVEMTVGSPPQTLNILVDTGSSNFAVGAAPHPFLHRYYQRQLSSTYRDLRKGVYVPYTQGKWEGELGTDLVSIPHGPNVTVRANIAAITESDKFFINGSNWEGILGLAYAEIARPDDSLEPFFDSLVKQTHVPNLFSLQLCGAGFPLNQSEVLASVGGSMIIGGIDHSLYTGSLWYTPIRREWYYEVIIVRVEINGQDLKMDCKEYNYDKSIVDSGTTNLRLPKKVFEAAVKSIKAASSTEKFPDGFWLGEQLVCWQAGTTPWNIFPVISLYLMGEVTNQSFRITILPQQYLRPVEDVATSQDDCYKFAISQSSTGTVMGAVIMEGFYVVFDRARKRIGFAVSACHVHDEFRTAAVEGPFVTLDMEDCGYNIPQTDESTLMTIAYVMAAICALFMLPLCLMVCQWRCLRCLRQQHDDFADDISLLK

[3] = target: CYP2D6 (Homo sapiens, UniProt P10635); test: CYP2D6 inhibition assay (bufuralol, pooled human liver microsomes)
Chain of CYP2D6 (P10635 whole entry): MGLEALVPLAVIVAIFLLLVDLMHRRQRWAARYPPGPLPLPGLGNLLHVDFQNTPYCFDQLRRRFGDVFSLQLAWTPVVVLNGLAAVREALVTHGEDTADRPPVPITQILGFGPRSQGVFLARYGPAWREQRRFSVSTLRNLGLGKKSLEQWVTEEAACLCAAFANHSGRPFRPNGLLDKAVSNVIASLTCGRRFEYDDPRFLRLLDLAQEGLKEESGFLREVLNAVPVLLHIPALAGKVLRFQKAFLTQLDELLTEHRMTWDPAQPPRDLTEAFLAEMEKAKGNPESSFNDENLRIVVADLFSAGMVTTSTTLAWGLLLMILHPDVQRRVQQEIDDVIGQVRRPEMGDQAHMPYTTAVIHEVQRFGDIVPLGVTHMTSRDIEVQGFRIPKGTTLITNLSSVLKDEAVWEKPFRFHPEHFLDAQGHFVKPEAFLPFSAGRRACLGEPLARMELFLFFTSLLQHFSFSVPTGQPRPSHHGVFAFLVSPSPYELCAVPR

[4] = Microsomal stability assay, human liver microsomes;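 also: pooled human liver microsomes at 0.25 mg/mL with 1 µM compound and NADPH at 37 °C, pH 7.4, for 30 min, unchanged parent quantified by LC-MS/MS against the 0 min sample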
[5] = Microsomal stability assay, rat liver microsomes;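 also: rat liver microsomes (0.25 mg/mL) with about 1 µM compound plus 1 mM NADPH, pH 7.4, 37 °C for 30 min, parent left measured by LC-MS/MS against 0 min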
[6] = system: Aβ40 in conditioned medium of cells stably expressing Amyloid Precursor Protein (APP); test: In vitro BACE cell-based assay (Aβ40 in conditioned medium, sandwich ELISA); settings: Homo sapiens;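 also: compounds added as a dilution series, secreted peptide quantified by europium time-resolved fluorescence readout, potency fitted from percent of control versus compound concentration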
[7] = BACE enzyme assay IC50, read-out: BACE1 FRET assay
[8] = 2D6 IC50 (uM), CYP2D6 inhibition
[9] = HEK293, HEK cell-based assay IC50, read-out: HEK cell assay
[10] = read-out: BACE1 FRET assay (IC50)
[11] = HEK293, HEK cells, read-out: HEK cell assay (IC50)
[12] = BACE enzyme assay, IC50's in uM, read-out: BACE1 FRET assay
[13] = 2D6 IC50 (uM), CYP enzyme inhibition
[14] = HEK293, HEK cell-based assay, IC50's in uM, read-out: HEK cell assay
[15] = BACE enzyme assay, read-out: BACE1 FRET assay
[16] = HEK293, HEK cells, read-out: HEK cell assay

Chain of CYP3A4 (CYP3A) (P08684 2-503): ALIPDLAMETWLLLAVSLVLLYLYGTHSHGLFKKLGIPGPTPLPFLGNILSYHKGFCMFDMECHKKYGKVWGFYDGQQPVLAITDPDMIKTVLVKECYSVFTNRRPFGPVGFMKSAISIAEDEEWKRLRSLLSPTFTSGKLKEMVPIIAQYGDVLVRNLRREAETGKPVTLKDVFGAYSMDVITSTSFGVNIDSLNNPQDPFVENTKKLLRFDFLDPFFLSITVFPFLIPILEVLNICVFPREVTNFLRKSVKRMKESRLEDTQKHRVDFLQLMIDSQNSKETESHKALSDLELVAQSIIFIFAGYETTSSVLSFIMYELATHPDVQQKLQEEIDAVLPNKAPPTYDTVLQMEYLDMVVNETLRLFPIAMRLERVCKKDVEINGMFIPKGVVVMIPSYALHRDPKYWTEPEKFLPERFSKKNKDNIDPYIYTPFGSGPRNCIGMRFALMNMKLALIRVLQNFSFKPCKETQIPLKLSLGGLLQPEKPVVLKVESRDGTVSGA

Work on `COCC(=O)N[C@H](Cc1cccc(-c2nccs2)c1)[C@@H](O)CN[C@H]1CC2(CCC2)Oc2ccc(CC(C)(C)C)cc21` [compound 701, N-((1R,2S)-3-(((4S)-6-(2,2-dimethylpropyl)-3,4-dihydrospiro[chromene-2,1′-cyclobutan]-4-yl)amino)-2-hydroxy-1-(3-(1,3-thiazol-2-yl)benzyl)propyl)-2-methoxyacetamide] yielded an IC50 [1] of 200 nM, an IC50 [2, 7] of 0.008 µM and an IC50 [3, 8] of 0.7 µM. The “HLM” value ([4]; human liver microsomes) was 137 µL/min/mg, the “RLM” value ([5]; rat liver microsomes) was 160 µL/min/mg and the IC50 [6, 9] was 0.033 µM.
`CC(=O)N[C@@H](Cc1cccc(-c2cccnc2)c1)[C@H](O)CN[C@H]1CC2(CCC2)Oc2ncc(CC(C)(C)C)cc21` [compound 623] gave an IC50 [1] of 160 nM, an IC50 [2, 10] of 0.008 µM and an IC50 ([3]; 2D6 IC50, CYP2D6 inhibition) of 1.3 µM. The HLM ([4]; human liver microsomes) was 829 µL/min/mg, the RLM ([5]; rat liver microsomes) was 601 µL/min/mg and the IC50 [6, 11] was 0.006 µM.
`CC(=O)N[C@@H](Cc1cc(F)cc(-c2cscn2)c1)[C@H](O)CN[C@H]1CC2(CCC2)Oc2ncc(CC(C)(C)C)cc21` [compound 672] gave an IC50 [1] of 400 nM, an IC50 [2, 7] of 0.004 µM and an IC50 [3, 8] of 2.7 µM. The “HLM” value ([4]; human liver microsomes) was 358 µL/min/mg, the “RLM” value ([5]; rat liver microsomes) was 134 µL/min/mg and the IC50 [6, 9] was 0.005 µM.
Compound `CC#Cc1ccc2c(c1)[C@@H](NC[C@@H](O)[C@H](Cc1cc(F)cc(-c3nccs3)c1)NC(=O)COC)CC1(CCC1)O2` [compound 806] has an IC50 [1] of 200 nM, an IC50 [2, 12] of 0.669 µM and an IC50 [3, 13] of 0.6 µM. The “HLM” value ([4]; human liver microsomal data) was 61 µL/min/mg, the “RLM” value ([5]; rat liver microsomal data) was 92 µL/min/mg and the IC50 [6, 14] was 4.15 µM.
`CO[C@H](C)C(=O)N[C@@H](Cc1ccc2c(c1)OCO2)[C@H](O)CN[C@@H]1c2cc(CC(C)(C)C)cnc2OC2(CCC2)[C@@H]1F` [compound 554] gave an IC50 [1] of 200 nM, an IC50 [2, 15] of 0.057 µM and an IC50 [3, 13] of 6.5 µM. The “HLM” value ([4]; human liver microsomal data) was 63 µL/min/mg, the “RLM” value ([5]; rat liver microsomal data) was 173 µL/min/mg and the IC50 [6, 16] was 1.02 µM.
Work on `Cc1ccccc1CN1CCO[C@@H](C(=O)N[C@@H](Cc2ccc(F)cc2)[C@H](O)CN[C@H]2CC3(CCC3)Oc3ncc(CC(C)(C)C)cc32)C1` [compound 692] yielded an IC50 [1] of 200 nM, an IC50 [2, 7] of 0.013 µM and an IC50 [3, 8] of 5.1 µM. The “HLM” value ([4]; human liver microsomes) was 706 µL/min/mg, the “RLM” value ([5]; rat liver microsomes) was 590 µL/min/mg and the IC50 [6, 9] was 0.024 µM.
For `COCC(=O)N[C@@H](Cc1ccc(F)cc1)[C@H](O)CN[C@H]1CC(C)(C)Oc2ncc(CC(C)(C)C)cc21` [compound 663], the IC50 [1] was 1700 nM, the IC50 [2, 10] was 0.013 µM and the IC50 ([3]; 2D6 IC50, CYP2D6 inhibition) was 10.5 µM. For the same compound, the HLM ([4]; human liver microsomes) was 163 µL/min/mg, the RLM ([5]; rat liver microsomes) was 133 µL/min/mg and the IC50 [6, 11] was 0.021 µM.
With `COCC(=O)N[C@@H](Cc1cc(F)cc(-c2nccs2)c1)[C@H](O)CN[C@H]1CC2(CCC2)Oc2ncc([C@@H]3CC3(C)C)cc21` [Example 773, N-((1S,2R)-3-(((4′S)-6′-((1R)-2,2-dimethylcyclopropyl)-3′,4′-dihydrospiro[cyclobutane-1,2′-pyrano[2,3-b]pyridin]-4′-yl)amino)-1-(3-fluoro-5-(1,3-thiazol-2-yl)benzyl)-2-hydroxypropyl)-2-methoxyacetamide] the IC50 [1] was 300 nM, the IC50 [2, 12] was 0.003 µM and the IC50 [3, 13] was 0.3 µM. The “HLM” value ([4]; human liver microsomal data) was 62 µL/min/mg, the “RLM” value ([5]; rat liver microsomal data) was 67 µL/min/mg and the IC50 [6, 14] was 0.006 µM.
For `CC(=O)N[C@@H](Cc1ccc(F)cc1)[C@H](O)CN[C@H]1CC2(CCC2)Oc2ncc(C(F)(F)C(C)(C)C)cc21` [compound 570], the IC50 [1] was 800 nM, the IC50 [2, 15] was 0.136 µM and the IC50 [3, 13] was 7.1 µM. The “HLM” value ([4]; human liver microsomal data) was 101 µL/min/mg, the “RLM” value ([5]; rat liver microsomal data) was 162 µL/min/mg and the IC50 [6, 16] was 0.405 µM.
`CO[C@H](C)C(=O)N[C@@H](Cc1ccc(O)c(O)c1)[C@H](O)CN[C@H]1CC2(CCC2)Oc2ncc(CC(C)(C)C)cc21` [compound 651] showed an IC50 [1] of 1600 nM, an IC50 [2, 10] of 0.008 µM and an IC50 ([3]; 2D6 IC50, CYP2D6 inhibition) of 10.8 µM. The HLM ([4]; human liver microsomes) was 171 µL/min/mg, the RLM ([5]; rat liver microsomes) was 147 µL/min/mg and the IC50 [6, 11] was 0.012 µM.
Work on `COCC(=O)N[C@@H](Cc1cc(F)cc(-c2nccs2)c1)[C@H](O)CN[C@H]1CC2(CCC2)Oc2cnc(CC(C)(C)F)cc21` [compound 718, N-((1S,2R)-3-(((4′S)-6′-(2-fluoro-2-methylpropyl)-3′,4′-dihydrospiro[cyclobutane-1,2′-pyrano[2,3-c]pyridin]-4′-yl)amino)-1-(3-fluoro-5-(1,3-thiazol-2-yl)benzyl)-2-hydroxypropyl)-2-methoxyacetamide] yielded an IC50 [1] of 300 nM, an IC50 [2, 7] of 0.051 µM and an IC50 [3, 8] of 0.5 µM. The “HLM” value ([4]; human liver microsomes) was 113 µL/min/mg, the “RLM” value ([5]; rat liver microsomes) was 140 µL/min/mg and the IC50 [6, 9] was 0.062 µM.
In the case of `COCC(=O)N[C@@H](Cc1ccc(F)c(F)c1)[C@H](O)CN[C@H]1CC(C)(C)Oc2ncc(CC(C)(C)C)cc21` [compound 676], the IC50 [1] is reported as 2000 nM, the IC50 [2, 7] is reported as 0.01 µM and the IC50 [3, 8] is reported as 2.9 µM. For the same compound, the “HLM” value ([4]; human liver microsomes) was 463 µL/min/mg, the “RLM” value ([5]; rat liver microsomes) was 411 µL/min/mg and the IC50 [6, 9] was 0.011 µM.
